Experimental data from PMC2990605 (British Journal of Cancer, 2010).
“Also recorded” adds a separate entry of the source.

How the values were obtained:
[1] = Plasma pharmacokinetics of tosedostat, CHR-79888 and paclitaxel (LC-MS/MS, noncompartmental); conditions: for AUC(0-t) / Cmax / Tmax / half-life / Vd/F: human, oral, mean (±s.e.m.); for AUC(0-t): AUC0−t; for half-life: T½; for Vd/F: Vz/F
Protocol: On day 21, samples were taken until 8 h post-dose; the day 22 predose sample was used as the 24 h sample of day 21. […] Peak plasma concentrations (Cmax), overall drug exposure (AUC), and terminal plasma half-life (t½) were calculated using noncompartmental methods using WinNonlin Professional software (version 4.1, Pharsight Corporation, St Louis, MO, USA). Pharmacokinetics analysis, with reference to possible interactions, was descriptive.

[2] = Dose-limiting toxicity and maximum tolerated dose of the paclitaxel/tosedostat combination; type: in vivo, patients
Protocol: The starting dose of CHR-2797 was 90 mg daily, below the MTD.
Toxicity was evaluated according to common toxicity criteria for adverse events (CTCAEv3.0). The MTD was defined as the dose level(s) at which at least two out of six patients developed DLT.

[3] = plasma, 90 mg, cohort 1: CHR-2797 90 mg, paclitaxel 135 mg m^−2, day 21, tosedostat without paclitaxel, plasma
[4] = plasma, 90 mg, cohort 2: CHR-2797 90 mg, paclitaxel 175 mg m^−2, day 21, tosedostat without paclitaxel, plasma
[5] = plasma, 130 mg, cohort 3: CHR-2797 130 mg, paclitaxel 175 mg m^−2, day 21, tosedostat without paclitaxel, plasma
[6] = plasma, 180 mg, cohort 4: CHR-2797 180 mg, paclitaxel 175 mg m^−2, day 21, tosedostat without paclitaxel, plasma
[7] = plasma, cohort 1: CHR-2797 90 mg, paclitaxel 135 mg m^−2, day 22, tosedostat in combination with paclitaxel, plasma
[8] = plasma, cohort 2: CHR-2797 90 mg, paclitaxel 175 mg m^−2, day 22, tosedostat in combination with paclitaxel, plasma
[9] = plasma, cohort 3: CHR-2797 130 mg, paclitaxel 175 mg m^−2, day 22, tosedostat in combination with paclitaxel, plasma
[10] = plasma, cohort 4: CHR-2797 180 mg, paclitaxel 175 mg m^−2, day 22, tosedostat in combination with paclitaxel, plasma

SMILES: CC(C)C[C@@H](C(=O)N[C@H](C(=O)OC1CCCC1)c1ccccc1)[C@H](O)C(=O)NO [tosedostat]
- effect of paclitaxel coadministration on Cmax, tmax and t½ ([1]; day 21 versus day 22): tendency for a decreased Cmax and an increased tmax and t½
- effect of paclitaxel coadministration on overall exposure (AUC0−t) ([1]; day 21 versus day 22): unaffected by paclitaxel administration; also recorded: unaffected by paclitaxel coadministration
- AUC(0-t) [1, 3]: 1140 ng·h/mL
- AUC(0-t) [1, 4]: 1890 ng·h/mL
- Cmax [1, 3]: 522 ng/mL
- Cmax [1, 4]: 969 ng/mL
- Tmax [1, 3]: 1.2 h
- Tmax [1, 4]: 1.2 h
- half-life [1, 3]: 1.2 h
- half-life [1, 4]: 1.3 h
- Vd/F [1, 3]: 179 L
- Vd/F [1, 4]: 72 L
- AUC(0-t) [1, 5]: 1920 ng·h/mL
- Cmax [1, 5]: 880 ng/mL
- Tmax [1, 5]: 1.7 h
- half-life [1, 5]: 1.1 h
- Vd/F [1, 5]: 112 L
- AUC(0-t) [1, 6]: 2520 ng·h/mL
- Cmax [1, 6]: 1400 ng/mL
- Tmax [1, 6]: 1.7 h
- half-life [1, 6]: 1.1 h
- Vd/F [1, 6]: 123 L
- AUC(0-t) [1, 7]: 896 ng·h/mL
- AUC(0-t) [1, 8]: 1410 ng·h/mL
- AUC(0-t) [1, 9]: 1400 ng·h/mL
- AUC(0-t) [1, 10]: 1710 ng·h/mL
- Cmax [1, 7]: 289 ng/mL
- Cmax [1, 8]: 527 ng/mL
- Cmax [1, 9]: 615 ng/mL
- Cmax [1, 10]: 399 ng/mL
- Tmax [1, 7]: 4 h
- Tmax [1, 8]: 2 h
- Tmax [1, 9]: 1.3 h
- Tmax [1, 10]: 4 h
- half-life [1, 7]: 2.4 h
- half-life [1, 8]: 3.1 h
- half-life [1, 9]: 4 h
- half-life [1, 10]: 3.1 h
- Vd/F [1, 7]: 258 L
- Vd/F [1, 8]: 276 L
- Vd/F [1, 9]: 587 L
- Vd/F [1, 10]: 471 L
- PK interaction between tosedostat and paclitaxel ([1]; in vivo): no PK interaction
- overall exposure versus dose ([1]; tosedostat 90–180 mg, plasma): increased in a dose proportional manner
- DLTs observed in the study ([2]; all cohorts, 22 patients, tosedostat with paclitaxel): only one DLT observed in 22 patients
- DLT ([2]; cohort 5: tosedostat 180 mg combined with paclitaxel 175 mg m^−2, one patient, first 21 days): One DLT (grade 3 dyspnoea); also recorded: CTC grade 3 dyspnoea, with grade 2 fever and persistent grade 3 urinary tract infection
- grade 3/4 toxicity in dose-escalation phase ([2]; cohort 6: 175 mg m^−2 paclitaxel, 240 mg tosedostat, three patients): without any grade 3/4 toxicity
- MTD of tosedostat combined with paclitaxel ([2]; tosedostat 90–240 mg daily, paclitaxel 135–175 mg m^−2 every 3 weeks): No formal MTD was determined; also recorded: Formal MTD was never reached; also recorded: not reached
